From ChEMBL document CHEMBL1130066, “Toward a novel metal-based chemotherapy against tropical diseases. 3. Synthesis and antimalarial activity in vitro and in vivo of the new gold-chloroquine complex [Au(PPh3)(CQ)]PF6” (J Med Chem, 1997)
pIC50: −log10 of the molar value.

Experiments:
Plasmodium falciparum [1] = assay: In vitro growth inhibition as IC50 against chloroquine-resistant Plasmodium falciparum FcB1; assay type: functional, organism-based
Plasmodium falciparum [2] = assay: In vitro growth inhibition as IC50 against chloroquine-resistant Plasmodium falciparum FcB2; assay type: functional, organism-based
Mus musculus [3] = assay: In vivo activity against Plasmodium berghei parasitaemia.; assay type: functional, organism-based
Mus musculus [4] = assay: In vivo activity against Plasmodium berghei parasitaemia; assay type: functional

“4N-(4-diethylamino-1-methylbutyl)-7-chloro-4-quinolinamine 1-N-[Au(PPh3)] compound with PF6- [listing 1 of 2 here]” was tested. Which pIC50 (Plasmodium falciparum [1]) did it give?
Its pIC50 is 8.29.

And the pIC50 (Plasmodium falciparum [2])?
Its pIC50 is 7.64.

How did the Parasitemia (Mus musculus [3]) turn out when “4N-(4-diethylamino-1-methylbutyl)-7-chloro-4-quinolinamine 1-N-[Au(PPh3)] compound with PF6- [listing 2 of 2 here]” was run?
Its Parasitemia is 7%.

With `CCN(CC)CCCC(C)Nc1ccnc2cc(Cl)ccc12.O=P(O)(O)O.O=P(O)(O)O` (centres undefined) [CHLOROQUINE PHOSPHATE] as the compound, how does the Parasitemia (Mus musculus [4]) read?
Its Parasitemia is 25%.
